Positions of bridges follow the written chain, without caps; N, C: chain ends. Chains are numbered I, II in the order given. No end group written: not given here.
How the values were obtained:
ectodomain of IL-1RI = target: T1, ectodomain of IL-1RI (Homo sapiens, UniProt P14778); experiment: Surface plasmon resonance binding of immobilized ligand to recombinant IL-1RI ectodomain; settings: SPR, Biacore 2000, ligand immobilized on CM4 chip, IL-1RI ectodomain injected, 25°C, pH 7.4
T1 construct: the recombinant ectodomain of IL-1RI (R&D Systems) was injected; purchased R&D Systems
T1 sequence (P14778 18-336 limits assumed): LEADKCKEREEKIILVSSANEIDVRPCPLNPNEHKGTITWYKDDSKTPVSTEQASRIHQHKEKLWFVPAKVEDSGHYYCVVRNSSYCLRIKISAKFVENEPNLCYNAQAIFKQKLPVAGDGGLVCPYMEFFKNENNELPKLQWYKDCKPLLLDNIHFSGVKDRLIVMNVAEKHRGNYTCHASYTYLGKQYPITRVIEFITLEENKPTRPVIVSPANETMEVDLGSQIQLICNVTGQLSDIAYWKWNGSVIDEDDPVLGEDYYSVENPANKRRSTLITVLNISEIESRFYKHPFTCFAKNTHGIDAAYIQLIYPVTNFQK
Protocol: The binding analysis was performed using a Biacore 2000 instrument (GE Healthcare Life Sciences) that contained 150 mM NaCl as running buffer at 25°C with 10 mM sodium phosphate (pH 7.4). The flow rate was 5 μl/min during immobilization. Ilantide peptide, IL-1β or IL-1Ra was immobilized on a CM4 sensor chip according to the manufacturer’s instructions, after which the recombinant ectodomain of IL-1RI (R&D Systems) was injected. The neural cell adhesion molecule (NCAM) immunoglobulin modules 1 and 2 (Ig1 and Ig2) were used as a negative control protein [9]. The data were analyzed using nonlinear curve-fitting with the manufacturer’s software.

[1] = system: experimental autoimmune encephalomyelitis; experiment: Experimental autoimmune encephalomyelitis; assay type: in vivo, rat; settings: female Lewis rats
Protocol: Experimental autoimmune enchephalomyelitis was induced in female Lewis rats by guinea pig myelin basic protein (MBP) emulsified with CFA (Sigma-Aldrich) that contained 1.0 mg/ml heat-inactivated M. tuberculosis. While the animals were under inhalation anesthesia (3% isoflurane; Baxter), 200 μl of an emulsion that contained 200 μg of MBP were subcutaneously injected at the tail base (dpi 0). Between dpi 0 and 21, weight and clinical signs of EAE were recorded daily for all of the animals. Clinical signs were scored as follows: 0 (no abnormality), 0.5 (weak tail), 1 (limp tail), 2 (mild palsy of one or both hind legs), 3 (severe palsy of one or both hind legs), 4 (complete paralysis of one or both hind legs), 5 (paralysis of one or both hindlimbs and the beginning of paralysis of the forelimbs) and 6 (moribund). Animals with a clinical score ≥4 were immediately killed. From dpi 10 forward, the animals were treated once daily for 5 consecutive days with Ilantide-t (10 mg/kg, 1 ml/kg, s.c.) or PBS (1.0 ml/kg s.c.). Only animals that reached a clinical score ≥1 before dpi 14 were included in the study.

[2] = system: Aβ25–35-induced social memory deficit; assay type: in vivo; settings: rat, Aβ25–35 15 μg i.c.v., Ilantide-t 10 mg/kg s.c., third trial
Protocol: Aggregates of Aβ25-35 (Bachem AG, Weil am Rhein, Germany) were prepared by incubating the peptides at a concentration of 3 μg/μl in sterile water for 4 days at 37°C. Subsequently, 5 μl of aggregated Aβ25-35 were injected intracerebroventricularly (1.2 μl/min) with a 10-μl Hamilton syringe using the following coordinates: 0.8 mm posterior to the bregma, 1.5 mm lateral to the sagittal suture and 3.8 mm beneath the surface of the brain. The procedure was performed while the animals were under anesthesia (i.p. fentanyl-fluanisone/midazolam at 0.3 ml/100-g animal; that is, 23.6 μg of fentanyl, 0.75 mg of fluanisone and 375 μg midazolam per 100-g animal). Social memory in animals reflects the ability of individuals to recognize conspecifics as familiar or unfamiliar. […] During each trial, the investigative behavior of the adult toward the juvenile (that is, licking, sniffing and chewing the fur of the juvenile) was monitored with a video camera and scored by an observer who was blinded to the treatment of the animals. […] The time spent investigating a novel juvenile (T3) was measured to confirm that the effect seen with the familiar juvenile was specific to cognition. In this case, RRnew was calculated as T3/(T1 + T3).

[3] = 10 mg/kg s.c. once daily dpi 10 to 14
[4] = 10 mg/kg s.c. once daily for 5 days

Substance | k d (ectodomain of IL-1RI) | Clinical signs of EAE [1, 3] | Effect on weight change or survival in EAE [1, 3] | Mean clinical signs of EAE versus vehicle, first and second days after onset [1, 4] | Mean clinical signs of EAE versus vehicle, later time points [1, 4] | RRnew (recognition ratio with new juvenile) [2]
IL-1Ra: recombinant interleukin 1 receptor antagonist purchased from R&D Systems | 3.62 ± 0.65 × 10^-3 s^-1 | – | – | – | – | –
I: SGRKSSKMQAKK-NH2 / II: SGRKSSKMQAK / III: SGRKSSKMQA / IV: SGRKSSKMQA (amide I:11-IV:C, I:12-II:C, II:11-III:C; C-terminus assumed) [Ilantide-t] | – | attenuated | no significant effects | significantly lower | no difference | did not differ from 0.5

Reference: publication PMC3923439, “Anti-inflammatory properties of a novel peptide interleukin 1 receptor antagonist” (Journal of Neuroinflammation, 2014)
